Test results reported in the supplement of paper PMC13380429.

Experiments:
[1] = system: A549-ACE2 infected with SARS-CoV-2; test: cell count relative to DMSO; higher = less toxic; conditions: 24 h
Caco-2 [2] = test: cell viability relative to DMSO; higher = less toxic; conditions: 72 h
Calu-3 [3] = test: as above; conditions: 72 h
HepG2 [4] = test: as above; conditions: 72 h
U2OS [5] = test: as above; conditions: 72 h
Vero E6 [6] = test: as above; conditions: 72 h
[7] = system: A549-ACE2 infected with SARS-CoV-2; test: SARS-CoV-2 infection rate relative to DMSO; higher = more infection; conditions: 24 h
A549-ACE2 = test: drug-induced phospholipidosis relative to tamoxifen; higher = more phospholipidosis
[8] = system: A549-ACE2 infected with SARS-CoV-2; test: morphology score (similarity to uninfected cells); higher = more like uninfected cells; conditions: 24 h
Calu-3 [9] = test: relative viability EC50 (midpoint between 100% and the lowest measured viability); higher = less toxic; conditions: 72 h
HepG2 [10] = test: as above; conditions: 72 h
U2OS [11] = test: as above; conditions: 72 h
Vero E6 [12] = test: as above; conditions: 72 h
Caco-2 [13] = test: drug sensitivity score (DSS) for viability; higher = more toxic; extreme values may be limits of the assay; conditions: 72 h
Calu-3 [14] = test: as above; conditions: 72 h
HepG2 [15] = test: as above; conditions: 72 h
U2OS [16] = test: as above; conditions: 72 h
Vero E6 [17] = test: as above; conditions: 72 h
Caco-2 [18] = test: relative viability EC50 (midpoint between 100% and the lowest measured viability); higher = less toxic; conditions: 72 h

Cc1ccc(NC(=O)c2ccc(CN3CCN(C)CC3)cc2)cc1Nc1nc(-c2cccnc2)cs1 [masitinib]
Conditions | SARS-CoV-2 infection rate, [7] [%] | cell count, [1] [%] | cell viability, Caco-2 [2] [%] | cell viability, Calu-3 [3] [%] | cell viability, HepG2 [4] [%] | cell viability, U2OS [5] [%] | cell viability, Vero E6 [6] [%] | morphology score, [8]
1 nM | – | – | 104 | 107 | 105 | 106 | 105 | –
10 nM | – | – | 99.5 | 88 | 103 | 101 | 102 | –
100 nM | – | – | 99.1 | 97.4 | 99.6 | 104 | 101 | –
0.3 µM | 98 | 88 | – | – | – | – | – | 0.14
1000 nM | – | – | 97.3 | 97.9 | 101 | 98 | 98 | –
10000 nM | – | – | 72 | 75.1 | 43.9 | 93.2 | 88.9 | –

A549-ACE2, 0.3 µM
Conditions | drug-induced phospholipidosis [%]
24 h | -0.73
48 h | 0.9
72 h | 2.47

Conditions | drug sensitivity score | relative viability EC50 [µM]
Caco-2 [13] | 1.6 | –
Calu-3 [9] | – | > 10
Calu-3 [14] | 1.2 | –
HepG2 [10] | – | 3.29
HepG2 [15] | 2.9 | –
U2OS [11] | – | > 10
U2OS [16] | 0 | –
Vero E6 [12] | – | > 10
Vero E6 [17] | 0.1 | –

CO[C@H]1C[C@H](O[C@@H]2/C(C)=C/C[C@@H]3C[C@@H](C[C@]4(CC[C@H](C)[C@@H](C5CCCCC5)O4)O3)OC(=O)[C@@H]3C=C(C)/C(=N/O)[C@H]4OC/C(=C\C=C\[C@@H]2C)[C@]43O)O[C@@H](C)[C@@H]1O [selamectin]
Conditions | SARS-CoV-2 infection rate, [7] [%] | cell count, [1] [%] | cell viability, Caco-2 [2] [%] | cell viability, Calu-3 [3] [%] | cell viability, HepG2 [4] [%] | cell viability, U2OS [5] [%] | cell viability, Vero E6 [6] [%] | morphology score, [8]
1 nM | – | – | 112 | 101 | 113 | 103 | 104 | –
10 nM | – | – | 119 | 106 | 120 | 98 | 104 | –
100 nM | – | – | 105 | 96.2 | 117 | 103 | 104 | –
0.3 µM | 103 | 96 | – | – | – | – | – | -0.14
1000 nM | – | – | 79.9 | 104 | 121 | 98.8 | 107 | –
3 µM | 79 | 105 | – | – | – | – | – | 0.43
10 µM | 48 | 93 | – | – | – | – | – | 0.75
10000 nM | – | – | 86.5 | 91.2 | 84.1 | 90.4 | 86.7 | –
30 µM | 15 | 111 | – | – | – | – | – | 0.7

Conditions | drug sensitivity score | relative viability EC50 [µM]
Caco-2 [13] | 2.5 | –
Caco-2 [18] | – | > 10
Calu-3 [9] | – | > 10
Calu-3 [14] | 0 | –
HepG2 [10] | – | > 10
HepG2 [15] | 0.1 | –
U2OS [11] | – | > 10
U2OS [16] | 0 | –
Vero E6 [12] | – | > 10
Vero E6 [17] | 0 | –

Clc1cc(Cl)c(OCC#CI)cc1Cl [haloprogin]
Conditions | SARS-CoV-2 infection rate, [7] [%] | cell count, [1] [%] | cell viability, Caco-2 [2] [%] | cell viability, Calu-3 [3] [%] | cell viability, HepG2 [4] [%] | cell viability, U2OS [5] [%] | cell viability, Vero E6 [6] [%] | morphology score, [8]
1 nM | – | – | 109 | 84 | 91.8 | 95.6 | 95.3 | –
10 nM | – | – | 90.2 | 88.5 | 104 | 95.2 | 96.9 | –
100 nM | – | – | 95.1 | 99.9 | 116 | 97.5 | 90.6 | –
0.3 µM | 97 | 100 | – | – | – | – | – | 0.18
1000 nM | – | – | 130 | 95.9 | 91 | 95.2 | 101 | –
3 µM | 83 | 100 | – | – | – | – | – | 0.44
10 µM | 71 | 79 | – | – | – | – | – | 0.28
10000 nM | – | – | 97 | 110 | 59.5 | 47.1 | 93.9 | –
30 µM | 15 | 15 | – | – | – | – | – | 0.1

drug-induced phospholipidosis [%], A549-ACE2
Conditions | 0.3 µM | 0.833333 µM | 3.33333 µM | 6.66667 µM | 10 µM
24 h | 4.53 | 2.7 | 5.33 | 17.8 | 23.3
48 h | -1.51 | -0.64 | 1.31 | 14.4 | 7.74
72 h | 5.04 | -1.02 | -0.916 | 2.19 | -6.87

Conditions | drug sensitivity score | relative viability EC50 [µM]
Caco-2 [13] | 0 | –
Caco-2 [18] | – | > 10
Calu-3 [9] | – | > 10
Calu-3 [14] | 0 | –
HepG2 [15] | 3.4 | –
U2OS [11] | – | 2.42
U2OS [16] | 3.6 | –
Vero E6 [12] | – | > 10
Vero E6 [17] | 0 | –
